Counter-ions that a name gives are not always drawn.
System: A549 human non-small-cell lung carcinoma cells
Assay: In vivo efficacy, A549 xenograft tumor volume
Set-up: species or system mice
Details: for pairwise comparison of log tumor volume AUC with the combination group / statistical difference (p) of log tumor volume AUC from the vehicle: 2-way ANOVA; for Tumor volume Mean: oral once daily, 2.5 mg/kg p70 S6 kinase inhibitor and/or 20 mg/kg erlotinib hydrochloride, in mm^3 (unit assumed); for Signif. (difference relative to vehicle group): tumor volume, repeated measures ANOVA; for log tumor volume AUC: tumor volume vs. time, trapezoid rule, vehicle 3.91
Method: A549 human non-small-cell lung carcinoma cells (5×10^6) are subcutaneously implanted into the flank of female C.B-17 (Fox Chase SCID) Model #CB17SC-M mice in 0.2 mL of matrigel. Approximately 1 week post-implantation when the tumor size is approximately 100 mg, mice are randomized into groups of 10 and dosed orally once daily at 2.5 mg/kg 4-[4-[4-(4-fluoro-3-trifluoromethyl-phenyl)-1-methyl-1H-imidazol-2-yl]-piperidin-1-yl]-1H-pyrazolo[3,4-d]pyrimidine (the p70 S6 kinase inhibitor; formulated in 35% PEG300/10% HPBCD/10% PS80 in H2O; concentration of inhibitor is 0.31 mg/mL) or 20 mg/kg erlotinib hydrochloride (formulated in NaCMC Tween 80; concentration of erlotinib hydrochloride is 2.5 mg/mL) or in combination (2.5 mg/kg of the p70 S6 kinase inhibitor and 20 mg/kg of erlotinib hydrochloride). The vehicle group is given the 2 vehicles (NaCMC Tween 80 and 35% PEG300/10% HPBCD/10% PS80 in H2O) in combination (0.1 mL of each). Treatment is continued for 38 days. Tumor volumes are measured using standard technique twice weekly and reported. Tumor size and body weight are recorded and analyzed bi-weekly. Tumor volume is estimated by using the formula: v=l×w^2×0.536 where l=larger of measured diameter and w=smaller of perpendicular diameter. The analysis uses SAS software version 8.2 (SAS Institutes Inc, Cary, N.C.) to analyze the log tumor volume data using a repeated measures ANOVA model with a spatial power covariance structure. For each time point taken, treatment groups are compared to the vehicle control group. Tumor volumes are given as means±standard errors for each treatment group determined from a repeated measures ANOVA on each group. (SAS for Mixed Models, 2nd Ed., Littell et al., 2006, SAS Institutes Inc, Cary, N.C.).
The tumor volume vs. time data for each animal is used to calculate an area under the curve (AUC) using the trapezoid rule. These AUCs are analyzed by 2-way ANOVA using a log transformation to equalize variance across groups. The two factors are the dose of 4-[4-[4-(4-fluoro-3-trifluoromethyl-phenyl)-1-methyl-1H-imidazol-2-yl]-piperidin-1-yl]-1H-pyrazolo[3,4-d]pyrimidine and the dose of erlotinib hydrochloride. The interaction effect between the factors is used to test for departure from additivity. (An Introduction to Statistical Methods and Data Analysis, R. Lyman Ott, 1993, Duxbury Press, Belmont, Calif.)
The results of this study are shown in the table below. n (the number of mice) is 9 for all the data, except for the data from day 17 onwards in the vehicle group and the data from day 38 onwards in the erlotinib hydrochloride group when it is 8. The data in the column headed Signif. indicates whether the difference relative to the vehicle group is statistically significant: NS=Not Significant (p>0.05); *=0.01<p≦0.05; **=0.001<p≦0.01; ***=p≦0.001.

Row | SMILES | pairwise comparison of log tumor volume AUC with the combination group | statistical difference (p) of log tumor volume AUC from the vehicle | Tumor volume Mean (Day 7) | Signif. (difference relative to vehicle group) (Day 7) | Tumor volume Mean (Day 9) | Signif. (difference relative to vehicle group) (Day 9) | Tumor volume Mean (Day 14) | Signif. (difference relative to vehicle group) (Day 14) | Tumor volume Mean (Day 17) | Signif. (difference relative to vehicle group) (Day 17) | Tumor volume Mean (Day 21) | Signif. (difference relative to vehicle group) (Day 21) | Tumor volume Mean (Day 24) | Signif. (difference relative to vehicle group) (Day 24) | Tumor volume Mean (Day 28) | Signif. (difference relative to vehicle group) (Day 28) | Tumor volume Mean (Day 31) | Signif. (difference relative to vehicle group) (Day 31) | Tumor volume Mean (Day 35) | Signif. (difference relative to vehicle group) (Day 35) | other results
1 | Cn1cc(-c2ccc(F)c(C(F)(F)F)c2)nc1C1CCN(c2ncnc3[nH]ncc23)CC1 [p70 S6 Kinase Inhibitor, 4-[4-[4-(4-fluoro-3-trifluoromethyl-phenyl)-1-methyl-1H-imidazol-2-yl]-piperidin-1-yl]-1H-pyrazolo[3,4-d]pyrimidine] | significantly different from the combination group | not significantly different from the vehicle | 33.8 | NS (NS=Not Significant (p>0.05)) | 51.9 | NS (NS=Not Significant (p>0.05)) | 56.2 | NS (NS=Not Significant (p>0.05)) | 75.9 | NS (NS=Not Significant (p>0.05)) | 94.1 | NS (NS=Not Significant (p>0.05)) | 113.5 | NS (NS=Not Significant (p>0.05)) | 196.6 | NS (NS=Not Significant (p>0.05)) | 231.3 | NS (NS=Not Significant (p>0.05)) | 302.4 | NS (NS=Not Significant (p>0.05)) | Tumor volume Mean (Day 38): 353.3; Signif. (difference relative to vehicle group) (Day 38): NS (NS=Not Significant (p>0.05)); Tumor volume Mean (Day 42): 425.5; Signif. (difference relative to vehicle group) (Day 42): NS (NS=Not Significant (p>0.05)); Tumor volume Mean (Day 44): 530.9; Signif. (difference relative to vehicle group) (Day 44): NS (NS=Not Significant (p>0.05)); log tumor volume AUC: 3.85
2 | C#Cc1cccc(Nc2ncnc3cc(OCCOC)c(OCCOC)cc23)c1 [Erlotinib Hydrochloride, N-(3-ethynylphenyl)-6,7-bis-(2-methoxyethoxy)-4-quinazolinamine] | significantly different from the combination group | not significantly different from the vehicle | 39.5 | NS (NS=Not Significant (p>0.05)) | 51.5 | NS (NS=Not Significant (p>0.05)) | 61.8 | NS (NS=Not Significant (p>0.05)) | 74.8 | NS (NS=Not Significant (p>0.05)) | 91.1 | NS (NS=Not Significant (p>0.05)) | 101.6 | NS (NS=Not Significant (p>0.05)) | 139.9 | NS (NS=Not Significant (p>0.05)) | 141.8 | ** (**=0.001<p≦0.01) | 196.7 | ** (**=0.001<p≦0.01) | Tumor volume Mean (Day 38): 259.4; Signif. (difference relative to vehicle group) (Day 38): * (*=0.01<p≦0.05); Tumor volume Mean (Day 42): 260.1; Signif. (difference relative to vehicle group) (Day 42): ** (**=0.001<p≦0.01); Tumor volume Mean (Day 44): 373.8; Signif. (difference relative to vehicle group) (Day 44): * (*=0.01<p≦0.05); log tumor volume AUC: 3.76
